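How tested: cells in 96-well plates exposed to compound for 48 hours at five concentrations. GI50 marks 50% less growth. TGI: concentration producing complete growth inhibition.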
Assays:
Assay in all cases: NCI anticancer screen, dose series, 48 h
HCC-2998 colon = tested on: HCC-2998 colon
SF-268 CNS = tested on: SF-268 CNS
UO-31 renal = tested on: UO-31 renal
NCI-H522 lung = tested on: NCI-H522 lung
HCT-15 colon = tested on: HCT-15 colon
A549 NSCLC = tested on: A549 NSCLC
SF-295 CNS = tested on: SF-295 CNS
NCI-H460 lung = tested on: NCI-H460 lung
RXF 393 renal = tested on: RXF 393 renal
OVCAR-3 ovarian = tested on: OVCAR-3 ovarian
LOX IMVI melanoma = tested on: LOX IMVI melanoma
DU-145 prostate = tested on: DU-145 prostate
HOP-92 NSCLC = tested on: HOP-92 NSCLC
HCT-116 colon = tested on: HCT-116 colon
CCRF-CEM leukemia = tested on: CCRF-CEM leukemia
MDA-MB-231 breast = tested on: MDA-MB-231 breast
PC-3 prostate = tested on: PC-3 prostate
MOLT-4 leukemia = tested on: MOLT-4 leukemia
HL-60(TB) leukemia = tested on: HL-60(TB) leukemia
M14 melanoma = tested on: M14 melanoma
ACHN renal = tested on: ACHN renal
HT29 colon = tested on: HT29 colon
TK-10 renal = tested on: TK-10 renal
MDA-MB-435 = tested on: MDA-MB-435
BT-549 breast = tested on: BT-549 breast
COLO 205 colon = tested on: COLO 205 colon
786-0 renal = tested on: 786-0 renal
SF-539 CNS = tested on: SF-539 CNS
OVCAR-5 ovarian = tested on: OVCAR-5 ovarian
HOP-62 NSCLC = tested on: HOP-62 NSCLC
MCF7 breast = tested on: MCF7 breast
SW-620 colon = tested on: SW-620 colon
OVCAR-8 ovarian = tested on: OVCAR-8 ovarian
HS 578T breast = tested on: HS 578T breast
U251 CNS = tested on: U251 CNS
UACC-257 melanoma = tested on: UACC-257 melanoma
RPMI-8226 leukemia = tested on: RPMI-8226 leukemia
T-47D breast = tested on: T-47D breast
NCI/ADR-RES ovarian = tested on: NCI/ADR-RES ovarian
EKVX NSCLC = tested on: EKVX NSCLC
OVCAR-4 ovarian = tested on: OVCAR-4 ovarian
NCI-H23 lung = tested on: NCI-H23 lung
SK-OV-3 ovarian = tested on: SK-OV-3 ovarian
NCI-H226 lung = tested on: NCI-H226 lung
SR leukemia = tested on: SR leukemia
K-562 leukemia = tested on: K-562 leukemia
A498 renal = tested on: A498 renal
SK-MEL-2 melanoma = tested on: SK-MEL-2 melanoma
MALME-3M melanoma = tested on: MALME-3M melanoma
SNB-75 CNS = tested on: SNB-75 CNS
SK-MEL-5 melanoma = tested on: SK-MEL-5 melanoma
SN12C renal = tested on: SN12C renal
UACC-62 melanoma = tested on: UACC-62 melanoma
SNB-19 CNS = tested on: SNB-19 CNS
CAKI-1 renal = tested on: CAKI-1 renal
KM12 colon = tested on: KM12 colon
IGROV1 ovarian = tested on: IGROV1 ovarian

CCCCCCCCn1ccc2cc(NC(=O)Cn3cc(CN4CCN(CC)CC4)nn3)ccc21
GI50 (HCC-2998 colon): 1.84 µM
TGI (HCC-2998 colon): 3.43 µM
GI50 (SF-268 CNS): 1.9 µM
TGI (SF-268 CNS): 4.01 µM
GI50 (UO-31 renal): 1.46 µM
TGI (UO-31 renal): 2.79 µM
GI50 (NCI-H522 lung): 1.89 µM
TGI (NCI-H522 lung): 3.84 µM
GI50 (HCT-15 colon): 1.78 µM
TGI (HCT-15 colon): 3.79 µM
GI50 (A549 NSCLC): 1.99 µM
TGI (A549 NSCLC): 4.1 µM
GI50 (SF-295 CNS): 1.87 µM
TGI (SF-295 CNS): 3.7 µM
GI50 (NCI-H460 lung): 1.94 µM
TGI (NCI-H460 lung): 3.68 µM
GI50 (RXF 393 renal): 1.48 µM
TGI (RXF 393 renal): 3.04 µM
GI50 (OVCAR-3 ovarian): 2.7 µM
TGI (OVCAR-3 ovarian): 8.25 µM
GI50 (LOX IMVI melanoma): 1.72 µM
TGI (LOX IMVI melanoma): 3.2 µM
GI50 (DU-145 prostate): 3.4 µM
TGI (DU-145 prostate): 11.4 µM
GI50 (HOP-92 NSCLC): 1.36 µM
TGI (HOP-92 NSCLC): 2.9 µM
GI50 (HCT-116 colon): 1.7 µM
TGI (HCT-116 colon): 3.51 µM
GI50 (CCRF-CEM leukemia): 3.06 µM
TGI (CCRF-CEM leukemia): 10.3 µM
GI50 (MDA-MB-231 breast): 1.75 µM
TGI (MDA-MB-231 breast): 3.38 µM
GI50 (PC-3 prostate): 2.06 µM
TGI (PC-3 prostate): 5.03 µM
GI50 (MOLT-4 leukemia): 2.58 µM
TGI (MOLT-4 leukemia): 6.68 µM
GI50 (HL-60(TB) leukemia): 1.97 µM
TGI (HL-60(TB) leukemia): 4.14 µM
GI50 (M14 melanoma): 1.9 µM
TGI (M14 melanoma): 3.67 µM
GI50 (ACHN renal): 1.82 µM
TGI (ACHN renal): 3.47 µM
GI50 (HT29 colon): 2 µM
TGI (HT29 colon): 4.39 µM
GI50 (TK-10 renal): 1.77 µM
TGI (TK-10 renal): 3.36 µM
GI50 (MDA-MB-435): 1.78 µM
TGI (MDA-MB-435): 3.32 µM
GI50 (BT-549 breast): 1.76 µM
TGI (BT-549 breast): 4.19 µM
GI50 (COLO 205 colon): 1.8 µM
TGI (COLO 205 colon): 3.47 µM
GI50 (786-0 renal): 1.61 µM
TGI (786-0 renal): 3.11 µM
GI50 (SF-539 CNS): 1.68 µM
TGI (SF-539 CNS): 3.17 µM
GI50 (OVCAR-5 ovarian): 2.36 µM
TGI (OVCAR-5 ovarian): 6.39 µM
GI50 (HOP-62 NSCLC): 1.7 µM
TGI (HOP-62 NSCLC): 3.33 µM
GI50 (MCF7 breast): 1.82 µM
TGI (MCF7 breast): 3.73 µM
GI50 (SW-620 colon): 1.9 µM
TGI (SW-620 colon): 3.62 µM
GI50 (OVCAR-8 ovarian): 2.33 µM
TGI (OVCAR-8 ovarian): 5.83 µM
GI50 (HS 578T breast): 2.14 µM
TGI (HS 578T breast): 5.54 µM
GI50 (U251 CNS): 1.77 µM
TGI (U251 CNS): 3.26 µM
GI50 (UACC-257 melanoma): 1.83 µM
TGI (UACC-257 melanoma): 3.65 µM
GI50 (RPMI-8226 leukemia): 2.28 µM
TGI (RPMI-8226 leukemia): 5.39 µM
GI50 (T-47D breast): 1.81 µM
TGI (T-47D breast): 3.56 µM
GI50 (NCI/ADR-RES ovarian): 12.2 µM
TGI (NCI/ADR-RES ovarian): 27.7 µM
GI50 (EKVX NSCLC): 1.81 µM
TGI (EKVX NSCLC): 4.65 µM
GI50 (OVCAR-4 ovarian): 6.46 µM
TGI (OVCAR-4 ovarian): 19.2 µM
GI50 (NCI-H23 lung): 1.96 µM
TGI (NCI-H23 lung): 4.14 µM
GI50 (SK-OV-3 ovarian): 1.78 µM
TGI (SK-OV-3 ovarian): 3.49 µM
GI50 (NCI-H226 lung): 1.59 µM
TGI (NCI-H226 lung): 3.1 µM
GI50 (SR leukemia): 3.35 µM
TGI (SR leukemia): 11.8 µM
GI50 (K-562 leukemia): 2.05 µM
TGI (K-562 leukemia): 4.34 µM
GI50 (A498 renal): 2.07 µM
TGI (A498 renal): 4.97 µM
GI50 (SK-MEL-2 melanoma): 2.01 µM
TGI (SK-MEL-2 melanoma): 3.89 µM
GI50 (MALME-3M melanoma): 1.68 µM
TGI (MALME-3M melanoma): 3.17 µM
GI50 (SNB-75 CNS): 1.52 µM
TGI (SNB-75 CNS): 2.98 µM
GI50 (SK-MEL-5 melanoma): 1.75 µM
TGI (SK-MEL-5 melanoma): 3.14 µM
GI50 (SN12C renal): 1.82 µM
TGI (SN12C renal): 3.76 µM
GI50 (UACC-62 melanoma): 1.91 µM
TGI (UACC-62 melanoma): 3.5 µM
GI50 (SNB-19 CNS): 1.9 µM
TGI (SNB-19 CNS): 3.77 µM
GI50 (CAKI-1 renal): 1.8 µM
TGI (CAKI-1 renal): 3.43 µM
GI50 (KM12 colon): 2.08 µM
TGI (KM12 colon): 4.74 µM
GI50 (IGROV1 ovarian): 2.17 µM
TGI (IGROV1 ovarian): 5.98 µM
